The record followed here is ChEMBL document CHEMBL3108727, “Lupane triterpenoids from the stems of Euonymus carnosus” (J Nat Prod, 2014).

The nature of data set [1]: Antiinflammatory activity in mouse BV2 cells assessed as inhibition of LPS-induced nitric oxide production after 24 hrs by Griess method. Type of data set: functional, cell-based. To be noted: BV-2, 24 h. Background: The Griess reaction detects nitrite, a stable product of nitric oxide.
The test system of data set [2] is A2780. In words: Cytotoxicity against human A2780 cells after 96 hrs by MTT assay. Type of data set: functional, cell-based. To be noted: A2780, 96 h. On the technique in general: Tetrazolium assays rely on reduction of a dye to a coloured formazan, in cell work by metabolically active cells.
Data set [3] relates to A549. Briefly: Cytotoxicity against human A549 cells after 96 hrs by MTT assay. Type of data set: functional, cell-based. As to conditions: A549, 96 h.
Data set [4] is described as follows: Cytotoxicity against human BGC823 cells after 96 hrs by MTT assay. Type of data set: functional, cell-based. As to conditions: BGC-823, 96 h.
Data set [5] in a line: Cytotoxicity against human Bel7402 cells after 96 hrs by MTT assay. Type of data set: functional, cell-based. As to conditions: Bel-7402, 96 h.
A short description of data set [6]: Cytotoxicity against human HCT8 cells after 96 hrs by MTT assay. Type of data set: functional, cell-based. To be noted: HCT-8, 96 h.
Data set [7] in a line: Cytotoxicity against mouse BV2 cells assessed as cell viability by MTT assay relative to LPS-treated control. Type of data set: cell-based, BV-2. Also noted: concentration or dose not given beside the values. As to conditions: read-out: Activity.

SMILES strings stand for the structures.

Usually IC50 stands for the concentration that gives 50% inhibition.

For the compound `C=C(CO)[C@@H]1CC[C@]2(C)CC[C@]3(C)[C@H](CC[C@@H]4[C@@]5(C)CC[C@@H](O)C(C)(C)[C@@H]5CC[C@]43C)[C@@H]12`, the IC50 in data set [1], in data set [2], in data set [3], in data set [4], in data set [5] and in data set [6] was over 10 µM throughout.
On to `CC(=O)[C@@H]1CC[C@]2(C)CC[C@]3(C)[C@H](CC[C@@H]4[C@@]5(C)CC[C@@H](O)C(C)(C)[C@@H]5CC[C@]43C)[C@@H]12`, for which the IC50 in data set [1], in data set [2], in data set [3], in data set [4], in data set [5] and in data set [6] was over 10 µM throughout.
On to `CC(=O)[C@@H]1CC[C@]2(C)CC[C@]3(C)[C@H](CC[C@@H]4[C@@]5(C)CC[C@H](O)C(C)(C)[C@@H]5CC[C@]43C)[C@@H]12`, for which the viability in data set [7] is 93.5%. Besides, the IC50 is 6.09 µM in data set [1]; over 10 µM in data set [2]; over 10 µM in data set [3]; over 10 µM in data set [4]; over 10 µM in data set [5]; over 10 µM in data set [6].
As for `C[C@H](C(=O)O)[C@@H]1CC[C@]2(C)CC[C@]3(C)[C@H](CC[C@@H]4[C@@]5(C)CCC(=O)C(C)(C)[C@@H]5CC[C@]43C)[C@@H]12`, the IC50 in data set [1], in data set [2], in data set [3], in data set [4], in data set [5] and in data set [6] was over 10 µM each time.
Regarding `C[C@@H](C(=O)O)[C@@H]1CC[C@]2(C)CC[C@]3(C)[C@H](CC[C@@H]4[C@@]5(C)CC[C@@H](O)C(C)(C)[C@@H]5CC[C@]43C)[C@@H]12`, the viability in data set [7] turned out to be 96.8%. In addition, the IC50 in data set [1] is 7.8 µM; in data set [2], over 10 µM; in data set [3] it was over 10 µM; in data set [4] it was over 10 µM; in data set [5] it was over 10 µM; in data set [6], over 10 µM.
On to `C[C@@H](O)[C@@H]1CC[C@]2(C)CC[C@]3(C)[C@H](CC[C@@H]4[C@@]5(C)CC[C@@H](O)C(C)(C)[C@@H]5CC[C@]43C)[C@@H]12`, for which, in data set [7], the viability was determined as 94.2%. The IC50 in data set [1] was 3.48 µM; in data set [2], over 10 µM; in data set [3], over 10 µM; in data set [4] it was over 10 µM; in data set [5] it was over 10 µM; in data set [6] it was over 10 µM.
As to `C[C@@H](CO)[C@@H]1CC[C@]2(C)CC[C@]3(C)[C@H](CC[C@@H]4[C@@]5(C)CCC(=O)C(C)(C)[C@@H]5C[C@H](O)[C@]43C)[C@@H]12`, the IC50 in data set [1], in data set [2], in data set [3], in data set [4], in data set [5] and in data set [6] was over 10 µM throughout.
Take `C[C@@H](CO)[C@@H]1CC[C@]2(C)C[C@H](O)[C@]3(C)[C@H](CC[C@@H]4[C@@]5(C)CCC(=O)C(C)(C)[C@@H]5CC[C@]43C)[C@@H]12`: the IC50 in data set [1], in data set [2], in data set [3], in data set [4], in data set [5] and in data set [6] was over 10 µM each time.
For the compound `C=C(CO)[C@@H]1CC[C@]2(C)CC[C@]3(C)[C@H](CC[C@@H]4[C@@]5(C)CCC(=O)C(C)(C)[C@@H]5C[C@H](O)[C@]43C)[C@@H]12`, the IC50 in data set [1], in data set [2], in data set [3], in data set [4], in data set [5] and in data set [6] was over 10 µM throughout.
Turning to `C=C(CO)[C@@H]1CC[C@]2(C)C[C@H](O)[C@]3(C)[C@H](CC[C@@H]4[C@@]5(C)CCC(=O)C(C)(C)[C@@H]5CC[C@]43C)[C@@H]12`, the IC50 in data set [1], in data set [2], in data set [3], in data set [4], in data set [5] and in data set [6] was over 10 µM in each case.
Turning to `C=C(C=O)[C@@H]1CC[C@]2(C)CC[C@]3(C)[C@H](CC[C@@H]4[C@@]5(C)CC[C@@H](O)C(C)(C)[C@@H]5CC[C@]43C)[C@@H]12`, the IC50 in data set [1], in data set [2], in data set [3], in data set [4], in data set [5] and in data set [6] was over 10 µM in each case.
`C=C(CO)[C@@H]1CC[C@]2(CO)CC[C@]3(C)[C@H](CC[C@@H]4[C@@]5(C)CC[C@@H](OC(C)=O)C(C)(C)[C@@H]5CC[C@]43C)[C@@H]12`: the IC50 is over 10 µM in data set [1]; over 10 µM in data set [2]; 3.35 µM in data set [3]; 4.09 µM in data set [4]; 2.77 µM in data set [5]; 3.21 µM in data set [6].
Consider `CC(=O)C1=C2[C@H]3CC[C@@H]4[C@@]5(C)CC[C@@H](O)C(C)(C)[C@@H]5CC[C@@]4(C)[C@]3(C)CC[C@@]2(C)CC1=O`, for which the IC50 in data set [1], in data set [2], in data set [3], in data set [4], in data set [5] and in data set [6] was over 10 µM each time.
In the case of `C=C(C)[C@@H]1CC[C@]2(C)CC[C@]3(C)[C@H](CC[C@@H]4[C@@]5(C)CC[C@@H](O)C(C)(C)[C@@H]5CC[C@]43C)[C@@H]12`, the IC50 in data set [1], in data set [2], in data set [3], in data set [4], in data set [5] and in data set [6] was over 10 µM throughout.
For `C=C(CO)[C@@H]1CC[C@]2(C)CC[C@]3(C)[C@H](CC[C@@H]4[C@@]5(C)CCC(=O)C(C)(C)[C@@H]5CC[C@]43C)[C@@H]12`, the IC50 in data set [1], in data set [2], in data set [3], in data set [4], in data set [5] and in data set [6] was over 10 µM in each case.
For the compound `C=C(CO)[C@@H]1CC[C@]2(C)CC[C@]3(C)[C@H](CC[C@@H]4[C@@]5(C)CC[C@H](O)C(C)(C)[C@@H]5CC[C@]43C)[C@@H]12`, the IC50 in data set [1], in data set [2], in data set [3], in data set [4], in data set [5] and in data set [6] was over 10 µM throughout.
For the compound `CC(=O)O[C@@H]1CC[C@]2(C)[C@H]3CC[C@@H]4[C@H]5[C@H](C(C)=O)CC[C@]5(CO)CC[C@@]4(C)[C@]3(C)CC[C@H]2C1(C)C` (relative stereo), the IC50 in data set [1], in data set [2], in data set [3], in data set [4], in data set [5] and in data set [6] was over 10 µM each time.
On to `CC(=O)[C@@H]1CC[C@]2(CO)CC[C@]3(C)[C@H](CC[C@@H]4[C@@]5(C)CC[C@@H](O)C(C)(C)[C@@H]5CC[C@]43C)[C@@H]12` (relative stereo), for which the IC50 in data set [1], in data set [2], in data set [3], in data set [4], in data set [5] and in data set [6] was over 10 µM each time.
Consider `CC(=O)OC[C@]12CC[C@@H](C(C)=O)[C@@H]1[C@H]1CC[C@@H]3[C@@]4(C)CC[C@@H](O)C(C)(C)[C@@H]4CC[C@@]3(C)[C@]1(C)CC2` (relative stereo), for which the IC50 in data set [1], in data set [2], in data set [3], in data set [4], in data set [5] and in data set [6] was over 10 µM throughout.
With `C=C(C)[C@@H]1CC[C@]2(CO)CC[C@]3(C)[C@H](CC[C@@H]4[C@@]5(C)CC[C@H](O)C(C)(C)[C@@H]5CC[C@]43C)[C@@H]12` [BETULIN], the IC50 in data set [1], in data set [2], in data set [3], in data set [4], in data set [5] and in data set [6] was over 10 µM throughout.
For `C=C(C)[C@@H]1CC[C@]2(CO)CC[C@]3(C)[C@H](CC[C@@H]4[C@@]5(C)CCC(=O)C(C)(C)[C@@H]5CC[C@]43C)[C@@H]12` [BETULONE], the IC50 in data set [1], in data set [2], in data set [3], in data set [4], in data set [5] and in data set [6] was over 10 µM throughout.
With `COc1cc(/C=C/C(=O)CC(=O)/C=C/c2ccc(O)c(OC)c2)ccc1O` [CURCUMIN], in data set [7], the viability worked out at 93.3%. The IC50 in data set [1] came out at 0.53 µM.
For the compound `C=C(C)[C@@H]1CC[C@]2(C)CC[C@]3(C)[C@H](CC[C@@H]4[C@@]5(C)CC[C@H](O)C(C)(C)[C@@H]5CC[C@]43C)[C@@H]12` [LUPEOL], the IC50 in data set [1], in data set [2], in data set [3], in data set [4], in data set [5] and in data set [6] was over 10 µM throughout.
As to `CC(=O)O[C@H]1C(=O)[C@@]2(C)[C@H]([C@H](OC(=O)c3ccccc3)[C@]3(O)C[C@H](OC(=O)[C@H](O)[C@@H](NC(=O)c4ccccc4)c4ccccc4)C(C)=C1C3(C)C)[C@]1(OC(C)=O)CO[C@@H]1C[C@@H]2O` [PACLITAXEL], the IC50 in data set [2] was found to be 0.59 µM; in data set [3] it was 0.032 µM; in data set [4], 0.026 µM; in data set [5] it was 0.011 µM.
